From patent US10111847B2, “Compounds and methods for modulating vascular injury” (The Regents of the University of California, priority 2012, dated 2018)

How the values were obtained:
[1] = tested on: human sv-VSMCs; test: PDGF-BB induced transwell migration of sv-VSMCs (Maresin-1); format: cell-based; conditions: 1-100 nM; PDGF-BB 50 ng/ml; 15 hr
Protocol: MaR-1. VSMCs were serum starved for 1-2 days, then trypsinized and seeded in 8-μm-pore transwell inserts (Corning Glass Works, Corning, N.Y.) at a concentration of 30,000 cells per well. Cells were allowed to attach for 2 hr, then pretreated with Maresin-1 (1-100 nM) or vehicle (0.1% ethanol) control for 30 min before the addition of PDGF-BB (50 ng/ml; Sigma-Aldrich, St. Louis, Mo., USA) to the lower wells. 7S-Maresin-1 was added to both upper and lower wells for the full duration of chemotaxis experiment (15 hr). The membranes were fixed with methanol and cut out, mounted with DAPI, and migrated cells were counted under fluorescence microscope. Ten images per well were taken randomly under a 10× magnification and number of cells were counted in all the images to calculate mean for a given well.
VSMCs were pre-treated with vehicle or 7S-Maresin-1 for 30 min in a transwell insert before adding […] (50 ng/ml) to the outer chamber. Migrated VSMCs were fixed with methanol, stained with DAPI and counted under a fluorescent microscope.
FIGS. 20A-20D. Representative image of nine independent experiments. (A) Vehicle Control. (B) PDGF-BB, 50 ng/ml. (C) 7S-Maresin-1, 1 nm+PDGF-BB, 50 ng/ml. (D) 7S-Maresin-1, 100 nm+PDGF-BB, 50 ng/ml. (E) Graphical summary of nine independent experiments. P≤0.01, One-way ANOVA with Dunnett's post hoc test. *P<0.05 compared to […] (50 ng/ml). […]

[2] = tested on: TNF-α-stimulated VSMC; test: U937 monocyte adhesion to TNF-α-stimulated VSMC (Maresin-1); format: cell-based, human; conditions: 1-100 nM, 30 min pretreatment; TNFα 10 ng/ml 4 hr
Protocol: MaR-1. VSMCs and ECs were seeded on a 96 well plate (20000 cells/well for VSMCs and 50000 cells/well for ECs) and after 2 days, were treated with Maresin-1 (1-100 nM) for 30 min followed by TNF-α for 4 hr and then calcein AM-labeled U937 cells were added on top of the VSMCs. After 15-minute incubation at 37 C, unbound cells were washed off with cold PBS. Fluorescence measurements (ex 494 nm, em 517 nm) of bound monocytes were taken with a plate reader. For capturing images, the assay was performed in 8-well chamber slides (Nunc Labtek) and images were taken after cold PBS wash (three times) following U937 incubation.
FIGS. 15A-15D. Representative images of Calcein-AM labeled U937 monocytes adhered to human sv-VSMCs pretreated with vehicle (A, B) or 7S-Maresin-1 (C) or 7S-Maresin-1 and pertussis toxin (D) for 30 min, followed by TNFα at 10 ng/ml for 4 hr (B, C, D). (E) Quantitative analysis of U937 adhesion assay in human sv-VSMCs and (F) human sv-ECs (1 ng/ml TNFα used for EC cells). […] Bar graph represents net quantitative densitometry analysis. […] Expression of MCP-1 was measured by qRT-PCR, and normalized to unstimulated cells (n=3, results are mean±SEM, P<0.05 for Mar-1 (10 and 100 nM) vs TNF alone, unpaired t-test).

CC/C=C\C/C=C\C[C@H](O)\C=C/C=C/C=C/[C@@H](O)C/C=C\CCC(=O)O [7S-Maresin-1, 7S,14R-dihydroxydocosa-4Z,8E,10Z,12Z,16Z,19Z-hexaenoic acid]
PDGF-BB induced migration in human sv-VSMCs [1]: Dose-Dependently Attenuates
monocyte adhesion (U937) to TNF-α-stimulated VSMC [2]: dose-dependent inhibition
